Laboratory results reported in PubChem BioAssay (NCI).
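Values below derive from 48-hour exposures of cells grown in 96-well plates, with endpoints linearly interpolated between the two concentrations bracketing the appropriate inhibition level. TGI marks complete inhibition of growth.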

Assays:
Assay in all cases: inhibition of tumour cell growth, NCI panel, 48 h
786-0 renal = tested on: 786-0 renal
A498 renal = tested on: A498 renal
A549 NSCLC = tested on: A549 NSCLC
ACHN renal = tested on: ACHN renal
BT-549 breast = tested on: BT-549 breast
CAKI-1 renal = tested on: CAKI-1 renal
CCRF-CEM leukemia = tested on: CCRF-CEM leukemia
HCC-2998 colon = tested on: HCC-2998 colon
HCT-116 colon = tested on: HCT-116 colon
HCT-15 colon = tested on: HCT-15 colon
HL-60(TB) leukemia = tested on: HL-60(TB) leukemia
HOP-62 NSCLC = tested on: HOP-62 NSCLC
HOP-92 NSCLC = tested on: HOP-92 NSCLC
HS 578T breast = tested on: HS 578T breast
HT29 colon = tested on: HT29 colon
K-562 leukemia = tested on: K-562 leukemia
KM12 colon = tested on: KM12 colon
LOX IMVI melanoma = tested on: LOX IMVI melanoma
M14 melanoma = tested on: M14 melanoma
MCF7 breast = tested on: MCF7 breast
MDA-MB-231 breast = tested on: MDA-MB-231 breast
MDA-MB-435 = tested on: MDA-MB-435
MDA-N = tested on: MDA-N
MOLT-4 leukemia = tested on: MOLT-4 leukemia
NCI-H226 lung = tested on: NCI-H226 lung
NCI-H23 lung = tested on: NCI-H23 lung
NCI-H460 lung = tested on: NCI-H460 lung
NCI/ADR-RES ovarian = tested on: NCI/ADR-RES ovarian
OVCAR-3 ovarian = tested on: OVCAR-3 ovarian
OVCAR-4 ovarian = tested on: OVCAR-4 ovarian
OVCAR-5 ovarian = tested on: OVCAR-5 ovarian
OVCAR-8 ovarian = tested on: OVCAR-8 ovarian
PC-3 prostate = tested on: PC-3 prostate
RPMI-8226 leukemia = tested on: RPMI-8226 leukemia
RXF 393 renal = tested on: RXF 393 renal
SF-268 CNS = tested on: SF-268 CNS
SF-295 CNS = tested on: SF-295 CNS
SF-539 CNS = tested on: SF-539 CNS
SK-MEL-2 melanoma = tested on: SK-MEL-2 melanoma
SK-MEL-28 melanoma = tested on: SK-MEL-28 melanoma
SK-MEL-5 melanoma = tested on: SK-MEL-5 melanoma
SK-OV-3 ovarian = tested on: SK-OV-3 ovarian
SN12C renal = tested on: SN12C renal
SNB-75 CNS = tested on: SNB-75 CNS
SW-620 colon = tested on: SW-620 colon
T-47D breast = tested on: T-47D breast
TK-10 renal = tested on: TK-10 renal
U251 CNS = tested on: U251 CNS
UACC-257 melanoma = tested on: UACC-257 melanoma
UACC-62 melanoma = tested on: UACC-62 melanoma
UO-31 renal = tested on: UO-31 renal
COLO 205 colon = tested on: COLO 205 colon
DU-145 prostate = tested on: DU-145 prostate
EKVX NSCLC = tested on: EKVX NSCLC
IGROV1 ovarian = tested on: IGROV1 ovarian
MALME-3M melanoma = tested on: MALME-3M melanoma
NCI-H522 lung = tested on: NCI-H522 lung
SNB-19 CNS = tested on: SNB-19 CNS
SR leukemia = tested on: SR leukemia

Measured: TGI

Cc1ccc(NC(=O)/C(=N/N(C)C)C(C2OC(=O)c3ccccc32)[N+](=O)[O-])cc1 (stereo not drawn)
not listed: COLO 205 colon | DU-145 prostate | EKVX NSCLC | IGROV1 ovarian | MALME-3M melanoma | NCI-H522 lung | SNB-19 CNS | SR leukemia
> 100 µM: all other assays above

CSCCCNC(=O)c1csc(-c2csc(CCNC(=O)CNC(=O)CNC(=O)OC(C)(C)C)n2)n1
not listed: RPMI-8226 leukemia | T-47D breast
> 100 µM: all other assays above
